Consider three compounds from PMC8096243 (Nucleic Acids Research, 2021).

What all share (type): binding
For experiment [1], the target named is T1, EcCdnD (Enterobacter hormaechei, UniProt P0DSP4).
T1 sequence (P0DSP4 1-381): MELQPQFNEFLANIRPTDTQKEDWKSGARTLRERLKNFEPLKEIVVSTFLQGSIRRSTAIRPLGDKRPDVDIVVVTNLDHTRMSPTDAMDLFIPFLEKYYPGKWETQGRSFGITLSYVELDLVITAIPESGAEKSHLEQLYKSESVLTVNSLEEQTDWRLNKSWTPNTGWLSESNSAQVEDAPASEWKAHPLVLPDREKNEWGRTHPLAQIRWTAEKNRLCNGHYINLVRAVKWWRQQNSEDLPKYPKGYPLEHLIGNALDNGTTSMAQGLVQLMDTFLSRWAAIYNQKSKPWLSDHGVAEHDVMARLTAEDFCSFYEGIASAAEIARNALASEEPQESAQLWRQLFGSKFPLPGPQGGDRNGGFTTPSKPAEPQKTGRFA
Description: ITC, single site. On the technique in general: ITC needs no label: the signal is the heat of the interaction.

Experiment [2] concerns the target T1, EcCdnD. Description: crystal structure.
Experiment [3] addresses T1, EcCdnD. Description: crystal structure. The source holds these as a separate data set.

With `Nc1nc2c(ncn2[C@@H]2O[C@H](COP(=O)(O)O[C@H]3[C@@H](O)[C@H](n4cnc5c(N)ncnc54)O[C@@H]3COP(=O)(O)OP(=O)(O)OP(=O)(O)O)[C@@H](O)[C@H]2O)c(=O)[nH]1` [5′-pppApG-3′], the dissociation constant (Kd) (as a rule, the equilibrium constant for the complex coming apart) in experiment [1] amounted to 29.7 ± 2.2 µM. For `Nc1ncnc2c1ncn2[C@@H]1O[C@H](COP(=O)(O)OP(=O)(O)O)[C@@H](O)[C@H]1O` [ADP], the “crystal structure (1.87 Å), together with donor ATP” value in experiment [2] was “The diphosphate group makes seven hydrogen bonds with Arg109, Arg197 and Arg307”. For `Nc1ncnc2c1ncn2[C@H]1CC[C@@H](CO[P@@](=O)(O)O[P@](=O)(O)OP(=O)(O)O)O1` [ddATP], the “crystal structure (2.09 Å)” value in experiment [3] was “the ddATP occupied the binding site for the donor substrate”.
